The values below come from patent publication US10047051B2, “Substituted pyridines and method of use” (AbbVie S.á{acute over (.)}r.l., priority 2015, dated 2018).

What all share (assay type): cell-based
One assay concerns the target T1, CFTR G551D mutant (Homo sapiens, UniProt P13569, G551D).
T1 construct: expressed in transfected cells; host or cells: HEK293 cells, reverse transfection with plasmids
Briefly: YFP-halide influx assay for the CFTR-G551D mutation (HEK293 cells). The settings on record: forskolin 10.67 μM. A digest of the protocol: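 Channel opening read as I⁻-driven quenching of a YFP H148Q/I152L/F47L reporter over 7 s post-injection, expressed as 1−F/F0 and fitted against concentration for EC50. Cells were HEK293 co-transfected at seeding with G551D CFTR plus reporter, then grown 24 h at 37 °C, 5% CO2.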

For a further assay, the target named is T2, CFTR ΔF508 mutant (Homo sapiens, UniProt P13569, DEL508-508).
T2 construct: expressed in transfected cells; host or cells: CFBE41o- cells, adenoviral transduction
The assay is described as follows: YFP-halide influx assay for the CFTR-ΔF508 mutation (CFBE41o- cells). The settings on record: forskolin 10.67 μM; for EC50: from (1−F/F0) vs concentration plot. The gist of the method: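 EC50 derived from plotting 1−F/F0 (fluorescence 36 s after iodide injection over pre-injection value) against compound concentration. Cells: CFBE41o- transduced with ΔF508-CFTR and YFP quench reporter, corrected 24 h at 27° C or by a CFTR modulator at 37° C.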

The target in a further assay is T3, CFTR G551D/ΔF508 (Homo sapiens, UniProt P13569, G551D).
T3 construct: host or cells: primary human bronchial epithelial cells from CF patients heterozygous G551D/ΔF508, no corrector pre-treatment
Briefly: TECC assay, primary bronchial epithelial cells, CFTR G551D/ΔF508. The settings on record: primary bronchial epithelial cells heterozygous G551D/ΔF508, acute mode, increase in Isc after forskolin. Here is the method: (§1) The TECC (Tranepithelial Clamp Circuit, EP-design) assay measures the functionality of the cystic fibrosis Transmembrane Conductance regulator (CFTR) by measuring the short circuit current (Isc) generated over the basolateral and apical membrane of lung epithelial cells. In TECC the transepithelial potential PD and transepithelial resistance (Rt) are measured in an open circuit and transformed to Isc using Ohm's law. 24 Wells can be measured simultaneously allowing a higher throughput compared to Ussing chambers.
(§2) For this purpose, bronchial epithelial cells isolated from CF patients homozygous for the CFTR ΔF508 mutation (hAEC-CF, Epithelix) are plated on type IV collagen-coated Transwell® supports (Costar). Human airway epithelia are generated by provision of an air-liquid interface for 21 days to form well-differentiated polarized cultures that resemble in vivo pseudo-stratified ciliated epithelium (Fulcher, M. L., Gabriel, S., Burns, K. A., Yankaskas, J. R., Randell, S. H., 2005. Well-differentiated human airway epithelial cell cultures. Methods Mol. Med. 107, 183-206). In the case of the homozygous ΔF508 CFTR samples, the differentiated cells are treated with 3 μM VX809 (2626 South Loop West, Suite 225, Houston, Tex. 77054 USA, Cat n# S1565) to allow sufficient expression of properly folded CFTR protein on the membrane (48 hours basolateral treatment and 24 hours apical treatment), prior to electrophysiological recordings. For heterozygous G551D/ΔF508, differentiated cells are used as such for the recordings.
(§3) Information on the compounds can be retrieved on the homozygous ΔF508 CFTR samples looking at increased CFTR activity when compounds are added in an acute mode or in a chronic mode. On G551D/ΔF508 CFTR heterozygous samples compounds are added in an acute mode to the differentiated cells.
(§4) For the acute mode, for electrophysiological recording, the human airway epithelia are mounted in the TECC heating plate for electrophysiological measurement and kept at 37° C. The epithelia are bathed in a NaCl-Ringer solution (120 mM NaCl, 25 mM NaHCO3, 1.2 mM CaCl2, 1.2 mM MgCl2, 0.8 mM KH2PO4, 0.8 mM K2HPO4, pH 7.4, 5 mM glucose) on both the basolateral and apical sides. Apical amiloride is used to inhibit the endogenous ENaC currents while forkolin is applied on both apical and basolateral side to stimulate CFTR. After forskolin triggering, compounds are added on both sides to test their potential for increasing CFTR gating. Measurements are done during a 20 minute timeframe with recordings every 2 minutes. The increase in Isc is used as a measure for the increased CFTR activity, EC50 values can be generated by measuring impact of different concentrations of compound on Isc on primary cells, for this purpose each transwell is treated with a different compound concentration. Inh-172, an inhibitor specific for CFTR, is used to test the specificity of the tested compounds.
When subjected to this protocol, the following values were obtained. The difference between ΔIsc measured as DMSO (baseline), and the ΔIsc measured with the compound tested.

The next assay deals with T4, CFTR-G178R (Homo sapiens, UniProt P13569, G178R).
T4 construct: expressed in transfected cells
Briefly: YFP-halide influx assay for the CFTR-G178R. The gist of the method: (§5)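 HEK293 cells reverse-transfected with a CFTR mutant and YFP H148Q/I152L/F47L halide sensor, expressed 24 h at 37° C. Fluorescence quenching followed for 7 s after I⁻ injection; activity expressed as 1−F/F0, with EC50 fitted from 1−F/F0 versus compound concentration.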

The target in the next assay is T5, CFTR-R117H (Homo sapiens, UniProt P13569, R117H).
T5 construct: expressed in transfected cells
Briefly: YFP-halide influx assay for the CFTR-R117H. A digest of the protocol:
as §5

The next assay deals with T6, CFTR-S549N (Homo sapiens, UniProt P13569, S549N).
T6 construct: expressed in transfected cells
The assay is described as follows: YFP-halide influx assay for the CFTR-S549N. Further details: % Activation: concentration or dose not given beside the values. The gist of the method: as §5

The next assay deals with T7, CFTR-G1349D (Homo sapiens, UniProt P13569, G1349D).
T7 construct: expressed in transfected cells
Briefly: YFP-halide influx assay for the CFTR-G1349D. The gist of the method: as §5

In the next assay the target is T8, CFTR ΔF508 (Homo sapiens, UniProt P13569, DEL508-508).
T8 construct: host or cells: primary human bronchial epithelial cells from CF patients homozygous for ΔF508, pre-treated with VX809
Briefly: TECC assay, primary bronchial epithelial cells, CFTR ΔF508. The settings on record: primary bronchial epithelial cells of CF patients homozygous for CFTR ΔF508, treated with 3 μM VX809, increase in Isc after forskolin. Here is the method: as §1, §2, §3, §4
For the chronic mode, the differentiated cells are treated with 3 μM VX809 (2626 South Loop West, Suite 225, Houston, Tex. 77054 USA, Cat n# S1565) and potentiator compounds at different concentrations (48 hours basolateral treatment and 24 hours apical treatment), prior to electrophysiological recordings. For electrophysiological recording, the human airway epithelia are mounted in the TECC heating plate for electrophysiological measurement and kept at 37° C. The epithelia are bathed in a NaCl-Ringer solution (120 mM NaCl, 25 mM NaHCO3, 1.2 mM CaCl2, 1.2 mM MgCl2, 0.8 mM KH2PO4, 0.8 mM K2HPO4, pH 7.4, 5 mM glucose) on both the basolateral and apical sides. Apical amiloride is used to inhibit the endogenous ENaC currents while forkolin is applied on both apical and basolateral side to stimulate CFTR. Measurements are done during a 20 minute timeframe with recordings every 2 minutes. […]

Structures are written as SMILES.

T7 sequence (P13569 whole entry G1349D): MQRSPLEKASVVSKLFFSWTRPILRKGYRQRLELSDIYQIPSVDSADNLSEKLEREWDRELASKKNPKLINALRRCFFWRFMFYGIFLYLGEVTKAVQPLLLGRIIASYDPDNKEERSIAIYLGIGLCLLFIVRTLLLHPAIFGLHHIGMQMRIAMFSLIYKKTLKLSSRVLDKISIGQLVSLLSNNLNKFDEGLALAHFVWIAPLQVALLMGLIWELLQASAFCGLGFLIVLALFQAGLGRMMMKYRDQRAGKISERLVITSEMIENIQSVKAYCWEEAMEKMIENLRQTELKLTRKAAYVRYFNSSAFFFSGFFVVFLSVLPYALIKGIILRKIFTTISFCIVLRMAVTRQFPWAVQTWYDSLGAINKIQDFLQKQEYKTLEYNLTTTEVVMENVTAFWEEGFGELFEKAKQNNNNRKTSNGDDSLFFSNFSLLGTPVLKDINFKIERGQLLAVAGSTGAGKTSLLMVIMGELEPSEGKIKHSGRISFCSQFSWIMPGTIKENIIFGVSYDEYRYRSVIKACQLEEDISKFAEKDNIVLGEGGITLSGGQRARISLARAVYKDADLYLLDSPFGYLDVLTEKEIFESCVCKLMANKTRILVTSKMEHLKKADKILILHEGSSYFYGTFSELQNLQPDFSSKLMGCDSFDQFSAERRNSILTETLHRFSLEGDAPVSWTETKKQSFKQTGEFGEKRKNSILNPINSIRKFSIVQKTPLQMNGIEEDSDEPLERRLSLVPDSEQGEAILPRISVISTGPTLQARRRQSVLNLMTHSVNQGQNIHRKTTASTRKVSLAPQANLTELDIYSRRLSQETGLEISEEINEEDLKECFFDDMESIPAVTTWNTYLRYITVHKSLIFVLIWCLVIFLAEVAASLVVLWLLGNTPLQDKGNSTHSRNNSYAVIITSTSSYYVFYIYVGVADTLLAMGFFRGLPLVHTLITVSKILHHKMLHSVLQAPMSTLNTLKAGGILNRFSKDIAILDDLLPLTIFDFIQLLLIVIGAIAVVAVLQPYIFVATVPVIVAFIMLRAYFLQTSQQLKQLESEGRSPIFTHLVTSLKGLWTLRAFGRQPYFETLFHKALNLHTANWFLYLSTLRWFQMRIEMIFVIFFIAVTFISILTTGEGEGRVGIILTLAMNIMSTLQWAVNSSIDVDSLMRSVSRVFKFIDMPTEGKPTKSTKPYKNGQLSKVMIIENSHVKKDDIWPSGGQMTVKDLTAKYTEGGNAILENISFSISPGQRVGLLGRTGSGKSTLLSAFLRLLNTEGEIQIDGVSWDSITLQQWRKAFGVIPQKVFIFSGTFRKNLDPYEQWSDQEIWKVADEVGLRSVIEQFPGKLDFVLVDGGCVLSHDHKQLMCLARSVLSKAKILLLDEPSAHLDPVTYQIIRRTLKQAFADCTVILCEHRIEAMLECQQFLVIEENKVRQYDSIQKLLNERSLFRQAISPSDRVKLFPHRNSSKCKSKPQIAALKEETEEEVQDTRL
T1 sequence (P13569 whole entry G551D): as the sequence (P13569 whole entry G1349D) above, with G551D, D1349G counted along it
T8 sequence (P13569 with tags, fused parts or gaps DEL508-508): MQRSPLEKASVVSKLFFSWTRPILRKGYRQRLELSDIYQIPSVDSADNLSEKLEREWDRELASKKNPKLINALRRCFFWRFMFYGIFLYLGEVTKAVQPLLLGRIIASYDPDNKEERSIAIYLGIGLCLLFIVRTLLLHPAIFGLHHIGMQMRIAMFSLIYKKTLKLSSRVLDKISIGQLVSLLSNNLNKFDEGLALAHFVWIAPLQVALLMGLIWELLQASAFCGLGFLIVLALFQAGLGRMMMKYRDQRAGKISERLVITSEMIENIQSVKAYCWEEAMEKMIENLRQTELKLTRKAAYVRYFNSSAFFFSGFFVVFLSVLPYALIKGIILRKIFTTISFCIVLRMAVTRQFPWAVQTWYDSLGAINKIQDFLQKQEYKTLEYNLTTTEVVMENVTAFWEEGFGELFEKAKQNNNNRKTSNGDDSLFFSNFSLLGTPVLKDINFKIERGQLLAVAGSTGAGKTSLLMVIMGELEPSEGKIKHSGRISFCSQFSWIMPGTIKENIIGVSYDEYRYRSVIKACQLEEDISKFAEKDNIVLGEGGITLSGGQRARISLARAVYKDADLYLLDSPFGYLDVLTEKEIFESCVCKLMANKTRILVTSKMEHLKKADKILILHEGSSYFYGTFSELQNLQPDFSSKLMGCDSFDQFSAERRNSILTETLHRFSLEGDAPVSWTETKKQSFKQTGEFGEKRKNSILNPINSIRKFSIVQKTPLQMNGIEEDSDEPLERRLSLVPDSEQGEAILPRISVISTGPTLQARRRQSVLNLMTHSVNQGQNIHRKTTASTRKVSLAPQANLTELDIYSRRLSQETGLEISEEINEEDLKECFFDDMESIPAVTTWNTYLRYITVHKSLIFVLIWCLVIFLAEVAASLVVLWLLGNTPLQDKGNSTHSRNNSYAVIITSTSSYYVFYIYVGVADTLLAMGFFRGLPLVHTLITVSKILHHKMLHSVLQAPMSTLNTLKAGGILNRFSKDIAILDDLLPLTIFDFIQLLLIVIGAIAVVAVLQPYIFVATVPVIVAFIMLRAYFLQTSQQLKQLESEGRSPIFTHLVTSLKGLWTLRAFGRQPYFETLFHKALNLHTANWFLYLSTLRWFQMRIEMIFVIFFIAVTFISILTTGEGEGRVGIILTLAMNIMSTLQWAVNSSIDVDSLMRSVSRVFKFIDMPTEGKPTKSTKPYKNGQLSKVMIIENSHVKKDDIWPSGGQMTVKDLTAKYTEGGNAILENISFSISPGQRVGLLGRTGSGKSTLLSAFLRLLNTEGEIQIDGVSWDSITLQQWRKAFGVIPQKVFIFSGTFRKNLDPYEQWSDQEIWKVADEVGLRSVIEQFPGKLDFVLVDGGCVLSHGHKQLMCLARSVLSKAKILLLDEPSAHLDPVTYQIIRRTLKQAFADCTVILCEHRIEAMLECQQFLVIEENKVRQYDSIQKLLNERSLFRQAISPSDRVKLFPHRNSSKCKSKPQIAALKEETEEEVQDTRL
T2 sequence (P13569 with tags, fused parts or gaps DEL508-508): as above
T3 sequence (P13569 whole entry F508del/G551D): as the sequence (P13569 with tags, fused parts or gaps DEL508-508) above, with G550D counted along it
T5 sequence (P13569 whole entry R117H): as the sequence (P13569 whole entry G1349D) above, with R117H, D1349G counted along it
T6 sequence (P13569 whole entry S549N): as the sequence (P13569 whole entry G1349D) above, with S549N, D1349G counted along it
T4 sequence (P13569 whole entry G178R): as the sequence (P13569 whole entry G1349D) above, with G178R, D1349G counted along it

As for `Nc1cc(S(=O)(=O)c2ccccc2)cnc1C(=O)NC[C@@H](O)C(F)(F)F` [Compound 253, 3-amino-5-(phenylsulfonyl)-N-[(2R)-3,3,3-trifluoro-2-hydroxypropyl]pyridine-2-carboxamide], the “% Activation” value at CFTR G551D mutant came out at 51.2%; on CFTR ΔF508 mutant, 102.6%. The EC50 at CFTR G551D mutant was 1070 nM; at CFTR ΔF508 mutant, 6 nM; at CFTR G551D/ΔF508 it was 1440 nM.

For the compound `COC[C@H](O)CNC(=O)c1ncc(S(=O)(=O)c2ccc(C(F)(F)F)cc2F)cc1N` [Compound 99, 3-amino-5-{[2-fluoro-4-(trifluoromethyl)phenyl]sulfonyl}-N-[(2R)-2-hydroxy-3-methoxypropyl]pyridine-2-carboxamide], the “% Activation” value on CFTR G551D mutant was 91.7%; on CFTR ΔF508 mutant, 109.5%. Further, the figures for the EC50 on CFTR G551D mutant, at CFTR ΔF508 mutant and on CFTR G551D/ΔF508 were 796 nM, 7.6 nM and 358 nM, respectively.

With `Nc1cc(S(=O)(=O)N2CCC(C(F)(F)F)CC2)cnc1C(=O)NCC(O)C(F)(F)F` (centres unmarked) [Compound 95, 3-amino-N-(3,3,3-trifluoro-2-hydroxypropyl)-5-{[4-(trifluoromethyl)piperidin-1-yl]sulfonyl}pyridine-2-carboxamide], the “% Activation” value on CFTR G551D mutant was 54.2%; on CFTR ΔF508 mutant it was 104.0%; at CFTR-G178R, 80.8%; at CFTR-R117H, 88.62%; at CFTR-S549N, 65.61%; at CFTR-G1349D, 71.97%. Besides, the EC50 on CFTR G551D mutant was found to be 300 nM; at CFTR ΔF508 mutant, 5.7 nM; at CFTR-G178R, 226 nM; at CFTR-R117H it was 138 nM; at CFTR G551D/ΔF508, 487 nM; on CFTR-S549N, 86.4 nM. On CFTR-G1349D, the EC50 is 75.4 nM.

`Nc1cc(S(=O)(=O)c2ccc(OC(F)(F)F)cc2)cnc1C(=O)NCC1CCCO1` (centres unmarked) [Compound 7, 3-amino-N-(tetrahydrofuran-2-ylmethyl)-5-{[4-(trifluoromethoxy)phenyl]sulfonyl}pyridine-2-carboxamide]: the “% Activation” value at CFTR G551D mutant is reported as 73.5%; at CFTR ΔF508 mutant it was 103.5%; on CFTR-R117H it was 82.7%; on CFTR-G1349D, 63.0%. The EC50 on CFTR G551D mutant is 723 nM; at CFTR ΔF508 mutant it was 69.1 nM; at CFTR-R117H, 479 nM; at CFTR G551D/ΔF508, 7720 nM; on CFTR-G1349D it was 549 nM.

Take `CCOCCOCC(O)CNC(=O)c1ncc(S(=O)(=O)c2ccc(OC(F)(F)F)cc2)cc1N` (centres unmarked) [Compound 38, 3-amino-N-[3-(2-ethoxyethoxy)-2-hydroxypropyl]-5-{[4-(trifluoromethoxy)phenyl]sulfonyl}pyridine-2-carboxamide]: the “% Activation” value is recorded as 86.0% at CFTR G551D mutant and 103.0% on CFTR ΔF508 mutant. The EC50 at CFTR G551D mutant was determined as 1110 nM; at CFTR ΔF508 mutant, 61.6 nM; on CFTR ΔF508, 91.3 nM.

Consider `CC(C)OC[C@H](O)CNC(=O)c1ncc(S(=O)(=O)c2ccc(C(F)(F)F)cc2)cc1N` [Compound 252, 3-amino-N-[(2R)-2-hydroxy-3-(propan-2-yloxy)propyl]-5-{[4-(trifluoromethyl)phenyl]sulfonyl}pyridine-2-carboxamide], for which the “% Activation” value on CFTR G551D mutant came out at 99.7%; on CFTR ΔF508 mutant, 102.0%. In addition, the concentration giving a half-maximal response (EC50) on CFTR G551D mutant stood at 215 nM; at CFTR ΔF508 mutant, 2.5 nM; on CFTR G551D/ΔF508, 62.2 nM.

Turning to `Nc1cc(S(=O)(=O)c2ccccc2OC(F)(F)F)cnc1C(=O)N1CC(O)(C(F)(F)F)C1` [Compound 85, (3-amino-5-{[2-(trifluoromethoxy)phenyl]sulfonyl}pyridin-2-yl)[3-hydroxy-3-(trifluoromethyl)azetidin-1-yl]methanone], the “% Activation” value at CFTR G551D mutant is recorded as 51.7%; at CFTR ΔF508 mutant it was 110.5%; on CFTR-G178R it was 77.69%; at CFTR-R117H, 103%; at CFTR-S549N, 104.8%; on CFTR-G1349D it was 90.89%. Also, the EC50 at CFTR G551D mutant was 28.9 nM; at CFTR ΔF508 mutant, 1 nM; on CFTR-G178R, 3.29 nM; at CFTR-R117H, 3.83 nM; at CFTR G551D/ΔF508, 9.5 nM; at CFTR-S549N it was 3.29 nM. In addition, on CFTR-G1349D, the 50% effective concentration (EC50) turned out to be 2.73 nM.

Consider `COCC(O)CNC(=O)c1ncc(S(=O)(=O)c2ccc(OC(F)(F)F)cc2F)cc1N` (centres unmarked) [Compound 71, 3-amino-5-{[2-fluoro-4-(trifluoromethoxy)phenyl]sulfonyl}-N-(2-hydroxy-3-methoxypropyl)pyridine-2-carboxamide], for which the “% Activation” value on CFTR G551D mutant turned out to be 70.2%; at CFTR ΔF508 mutant, 108.0%. The EC50 amounted to 1260 nM at CFTR G551D mutant, 19.1 nM on CFTR ΔF508 mutant and 112 nM at CFTR ΔF508.

Turning to `CC1(C)CN(C(=O)c2ncc(S(=O)(=O)c3ccc(OC(F)(F)F)cc3)cc2N)C1` [Compound 59, (3-amino-5-{[4-(trifluoromethoxy)phenyl]sulfonyl}pyridin-2-yl)(3,3-dimethylazetidin-1-yl)methanone], the “% Activation” value at CFTR G551D mutant was determined as 84.6%; at CFTR ΔF508 mutant it was 111.0%. The EC50 on CFTR G551D mutant came to 1630 nM; on CFTR ΔF508 mutant, 34.3 nM; on CFTR ΔF508 it was 50.4 nM.

What is called EC50 is the concentration at which the effect is half-maximal.
